# Measured values taken from patent publication US20070105115A1, “Promoter of the human fatp5 gene and uses” (MERCK SANTE, priority 2003, published 2007).
# Legend:
# ZDF rats = assay: Reversal of the diabetic phenotype in the ZDF rat by an insulin sensitizer; assay type: in vivo; details: LGD 1069 in food 0.3-30 mg/kg/day for 50 days from age 7 weeks
# Experimental: Male diabetic fatty rats (Zucker diabetic fatty rats (ZDF rats)) are kept in an animal house with free access to food and water, the nyctohemeral rhythm being observed. The compound LGD 1069 is added to the food at a dose of 0.3, 1.0, 3.0, 10 or 30 mg/kg/day and administered for 50 days as from the age of 7 weeks. 4 animals are fed without the addition of LGD 1069: 2 ZDF and 2 ZLC. The animals are fasted and sacrificed the next day. The tissues are collected and frozen immediately in liquid nitrogen.
# FATP5 = assay: Hepatic FATP5 expression (Northern blotting) in ZDF rats treated with LGD 1069; assay type: in vivo, rat; details: LGD 1069 in food 0.3-30 mg/kg/day for 50 days from age 7 weeks; Northern blot; FIG. 15
# Experimental: Male diabetic fatty rats (Zucker diabetic fatty rats (ZDF rats)) are kept in an animal house with free access to food and water, the nyctohemeral rhythm being observed.
# The compound LGD 1069 is added to the food at a dose of 0.3, 1.0, 3.0, 10 or 30 mg/kg/day and administered for 50 days as from the age of 7 weeks. 4 animals are fed without the addition of LGD 1069: 2 ZDF and 2 ZLC. The animals are fasted and sacrificed the next day. The tissues are collected and frozen immediately in liquid nitrogen.
# The hepatic RNAs are extracted by the conventional technique derived from Chomczynski and Sacchi. The expression is analysed by Northern blotting with hybridization using a radioactive cDNA probe specific for FATP5.
smiles,measurement,setting,value
"C=C(c1ccc(C(=O)O)cc1)c1cc2c(cc1C)C(C)(C)CCC2(C)C [RXR agonist, bexarotene]",development of diabetes,ZDF rats,reverses the development of diabetes
same,Negative regulation of the expression of FATP5 in the liver of ZDF rats compared with ZLC rats,FATP5,counteracted
